Measured values: patent US9457093B2, “Solid dispersions of a ERB2 (HER2) inhibitor” (Array BioPharma Inc., priority 2011, dated 2016)

Experiment: Dissolution testing at pH 6.5 in phosphate buffer at 37° C.
Format: physicochemical
Conditions: pH 6.5 phosphate buffer, about 240 minutes
Method: Dissolution testing was performed at a pH of 6.5 in phosphate buffer. The solid dispersion was suspended in H2O and added directly to the buffer solution at 37° C. The dissolution profile was collected over a period of about 240 minutes. The results are in FIG. 2.
Dissolution testing was performed at a pH of 6.5 in phosphate buffer. The solid dispersion was suspended in H2O and added directly to the buffer solution at 37° C. The dissolution profile was collected over a period of about 240 minutes. The results are in FIG. 3.
Dissolution testing was performed at a pH of 6.5 in phosphate buffer. The solid dispersion was suspended in H2O and added directly to the buffer solution at 37° C. The dissolution profile was collected over a period of about 240 minutes. The results are in FIG. 4.
Dissolution testing was performed at a pH of 6.5 in phosphate buffer. The solid dispersion was suspended in H2O and added directly to the buffer solution at 37° C. The dissolution profile was collected over a period of about 240 minutes. The results are in FIG. 5.
Dissolution testing was performed at a pH of 6.5 in phosphate buffer. The solid dispersion was suspended in H2O and added directly to the buffer solution at 37° C. The dissolution profile was collected over a period of about 240 minutes. The results are in FIG. 6.
Dissolution testing was performed at a pH of 6.5 in phosphate buffer. […]

## Cc1cc(Nc2ncnc3ccc(NC4=NC(C)(C)CO4)cc23)ccc1Oc1ccn2ncnc2c1 [Example 12, N4-(4-([1,2,4]triazolo[1,5-α]pyridin-7-yloxy)-3-methylphenyl)-N6-(4,4-dimethyl-4,5-dihydrooxazol-2-yl)quinazoline-4,6-diamine freebase hemi-ethanolate]
  AUC for the free drug species: 5490 ng·h/mL
  Cmax for the free drug species: 440 ng/mL
